Assay results published in publication PMC10720538, “Population pharmacokinetic modeling and target attainment analyses of rezafungin for the treatment of candidemia and invasive candidiasis” (Antimicrobial Agents and Chemotherapy, 2023).
*1 amine or outer side, *2 acyl side, *3 side chain or, on linkers, in order; H or OH if unused. Where a SMILES comes first, the peptide text is derived from it. Bridges are numbered along the chain shown (N, C = ends). [ ]: non-standard residue; d: D form. The star is where a group is joined. Orn(4R-OH,5R-OCH2CH2NMe3+) = C[N+](C)(C)CCO[C@@H](N[*:3])[C@H](O)C[C@H](N[*:1])C(=O)[*:2]; pTerphenylCO(4''-OnC5H11) = CCCCCOc1ccc(-c2ccc(-c3ccc(C(=O)*)cc3)cc2)cc1; hTyr(3S-OH,4S-OH) = N[C@H](C(=O)O)[C@H](O)[C@@H](O)c1ccc(O)cc1; Pro(3S-OH,4S-Me) = C[C@H]1CN[C@H](C(=O)O)[C@H]1O; Hyp = O=C(O)[C@@H]1C[C@@H](O)CN1

What was measured:
[1] = mouse plasma; cited from earlier work
Experimental: Using each simulated patient’s Bayesian PK parameters and dose amounts, simulations were performed to obtain plasma concentration profiles. […] For the purposes of target attainment analyses, AUC0–168h after the first dose was used (day 1). Protein binding of 99.2% in mouse plasma and of 97.4% in human (presumed healthy) plasma has been reported ([34]).

Candida albicans = settings: CLSI MIC, neutropenic mouse, ref Lepak et al., 2018 (e02154-17), cited from earlier work
Experimental: (§1) TABLE 4 Nonclinical pharmacokinetic/pharmacodynamic targets, by species^a^,^b^,^c | column: Stasis / fAUC0–168h/MIC median; 1-Log drop / fAUC0–168h/MIC median || FIG 4 Probability of pharmacokinetic/pharmacodynamic target attainment for 400 mg rezafungin against Candida species using CLSI methodology. f, free. TEXT PRINTED IN THE PICTURE: no label printed: Candida albicans − fAUC/MIC Targets: CLSI Target: Stasis 20.5; Candida albicans − fAUC/MIC Targets: CLSI Target: 1-Log Drop in CFU 37.2; Candida glabrata − fAUC/MIC Targets: CLSI Target: Stasis 0.5; Candida glabrata − fAUC/MIC Targets: CLSI Target: 1-Log Drop in CFU 2.94; Candida parapsilosis − fAUC/MIC Targets: CLSI Target: Stasis 18.2; Candida auris − fAUC/MIC Targets: CLSI Target: Stasis 12.1; Can ...

Candida tropicalis = settings: CLSI MIC, neutropenic mouse, ref Lepak et al., 2019 (e01556-19), cited from earlier work
Experimental: as §1

Candida glabrata = settings: CLSI MIC, neutropenic mouse, ref Lepak et al., 2018 (e02154-17), cited from earlier work
Experimental: as §1

Candida dubliniensis = settings: CLSI MIC, neutropenic mouse, ref Lepak et al., 2019 (e01556-19), cited from earlier work
Experimental: as §1

Candida auris = settings: CLSI MIC, neutropenic mouse, published fAUC0–24 h/MIC target multiplied by 7, ref Lepak et al., 2018 (e01572-18), cited from earlier work
Experimental: as §1

[2] = Simulated exposure measures after a single 400 mg dose from individual Bayesian PK estimates, with forest plots of covariate effects; format: in vivo, human; settings: for Half-life: from simulated concentrations during week 2 after the last dose; for Clearance: individual model-based estimates (CL); for AUC0–168h / Cmax / Cmin, 168h: single 400 mg IV dose, simulated; for Total volume of distribution at steady state: sum of individual model-based central and peripheral volumes
Experimental: To illustrate the relative differences in the impact of the covariates included in the final model on the exposure of rezafungin, forest plots were constructed using simulated exposure for the subjects in the analysis data set, following a single dose of 400 mg. […] Though statistically significant and included in the final model, the GMR rezafungin exposure and 90% CI of each covariate effect were not far outside of the default no effect bounds of 0.8 and 1.25.
Age was not determined to be a significant covariate of rezafungin exposure. Sixty-three patients were aged 65 years or older, with the oldest patient being […]. Thirty-eight patients were aged 65 to <75, and 25 patients were aged 75 to 89 years old. The GMR (90% CI) of AUC0–168h of these two age groups were 0.95 (0.85, 1.05) and 1.20 (1.06, 1.36), respectively, compared to patients 24 to <65 years old (n = 104). The change in exposure in patients 65 years or older is not deemed clinically meaningful.
The final PK model of rezafungin, the individual empirical Bayesian PK parameter estimates, and the individual dosing histories were used to simulate dense PK profiles for each subject using the R package mrgsolve ([33]).

[3] = healthy subjects, n = 94, geometric mean (geometric %CV)
[4] = healthy subjects, n = 94, mean (SD), SD
[5] = hepatic impairment, uninfected, n = 16, geometric mean (geometric %CV)
[6] = hepatic impairment, uninfected, n = 16, mean (SD), SD
[7] = patients, n = 167, geometric mean (geometric %CV)
[8] = patients, n = 167, mean (SD), SD

Question: For `CCCCCOc1ccc(-c2ccc(-c3ccc(C(=O)N[C@H]4C[C@@H](O)[C@@H](OCC[N+](C)(C)C)NC(=O)[C@@H]5[C@@H](O)[C@@H](C)CN5C(=O)[C@H]([C@@H](C)O)NC(=O)[C@H]([C@H](O)[C@@H](O)c5ccc(O)cc5)NC(=O)[C@@H]5C[C@@H](O)CN5C(=O)[C@H]([C@@H](C)O)NC4=O)cc3)cc2)cc1` [rezafungin] ({pTerphenylCO(4''-OnC5H11)}-[Orn(4R-OH,5R-OCH2CH2NMe3+)]T[Hyp][hTyr(3S-OH,4S-OH)]T[Pro(3S-OH,4S-Me)]; lactam 1-C), which Protein binding [1] is on record?
Answer: 99.2%

Question: And the “1-Log drop, fAUC0–168h/MIC median” value (Candida albicans; 1-log10 drop in CFU)?
Answer: 37.2

Question: What about the “Stasis, fAUC0–168h/MIC median” value (Candida albicans; net fungal stasis) of the same compound?
Answer: 20.5

Question: And the “1-Log drop, fAUC0–168h/MIC median” value (Candida tropicalis; 1-log10 drop in CFU)?
Answer: 148.9

Question: And the “Stasis, fAUC0–168h/MIC median” value (Candida tropicalis; net fungal stasis)?
Answer: 86.5

Question: What about the “1-Log drop, fAUC0–168h/MIC median” value (Candida glabrata; 1-log10 drop in CFU) of the same compound?
Answer: 2.94

Question: And the “Stasis, fAUC0–168h/MIC median” value (Candida glabrata; net fungal stasis)?
Answer: 0.5

Question: What about the “1-Log drop, fAUC0–168h/MIC median” value (Candida dubliniensis; 1-log10 drop in CFU) of the same compound?
Answer: 228.3

Question: What about the “Stasis, fAUC0–168h/MIC median” value (Candida dubliniensis; net fungal stasis) of the same compound?
Answer: 35.1

Question: And the “1-Log drop, fAUC0–168h/MIC median” value (Candida auris; 1-log10 drop in CFU)?
Answer: 38.4

Question: And the “Stasis, fAUC0–168h/MIC median” value (Candida auris; net fungal stasis)?
Answer: 12.1

Question: And the Half-life [2, 3]?
Answer: 143.368 (9.737) h

Question: What about the Half-life [2, 4] of the same compound?
Answer: 144.039 (14.027) h

Question: What about the Half-life [2, 5] of the same compound?
Answer: 132.827 (9.457) h

Question: What about the Half-life [2, 6] of the same compound?
Answer: 133.372 (12.249) h

Question: And the Half-life [2, 7]?
Answer: 149.458 (18.095) h

Question: And the Half-life [2, 8]?
Answer: 151.960 (29.086) h

Question: What about the Clearance [2, 3] of the same compound?
Answer: 0.229 (20.266) L/h

Question: And the Clearance [2, 4]?
Answer: 0.234 (0.048) L/h

Question: And the Clearance [2, 5]?
Answer: 0.336 (21.829) L/h

Question: What about the Clearance [2, 6] of the same compound?
Answer: 0.343 (0.077) L/h

Question: What about the Clearance [2, 7] of the same compound?
Answer: 0.328 (38.396) L/h

Question: What about the Clearance [2, 8] of the same compound?
Answer: 0.350 (0.130) L/h

Question: What about the “AUC0–168h” value [2, 3] of the same compound?
Answer: 1,070.513 (20.149) μg × h/mL

Question: And the Cmax [2, 3]?
Answer: 21.725 (22.466) μg/mL

Question: And the “Cmin, 168h” value [2, 3]?
Answer: 3.247 (22.858) μg/mL

Question: What about the “AUC0–168h” value [2, 4] of the same compound?
Answer: 1,091.512 (215.164) μg × h/mL

Question: And the Cmax [2, 4]?
Answer: 22.244 (4.789) μg/mL

Question: And the “Cmin, 168h” value [2, 4]?
Answer: 3.329 (0.741) μg/mL

Question: What about the “AUC0–168h” value [2, 5] of the same compound?
Answer: 778.250 (19.012) μg × h/mL

Question: What about the Cmax [2, 5] of the same compound?
Answer: 17.061 (16.797) μg/mL

Question: What about the “Cmin, 168h” value [2, 5] of the same compound?
Answer: 2.113 (25.916) μg/mL

Question: What about the “AUC0–168h” value [2, 6] of the same compound?
Answer: 791.452 (152.248) μg × h/mL

Question: And the Cmax [2, 6]?
Answer: 17.291 (3.017) μg/mL

Question: What about the “Cmin, 168h” value [2, 6] of the same compound?
Answer: 2.176 (0.533) μg/mL

Question: And the “AUC0–168h” value [2, 7]?
Answer: 752.507 (35.100) μg × h/mL

Question: What about the Cmax [2, 7] of the same compound?
Answer: 17.715 (35.418) μg/mL

Question: What about the “Cmin, 168h” value [2, 7] of the same compound?
Answer: 2.097 (43.351) μg/mL

Question: And the “AUC0–168h” value [2, 8]?
Answer: 798.607 (295.120) μg × h/mL

Question: And the Cmax [2, 8]?
Answer: 18.761 (6.448) μg/mL

Question: What about the “Cmin, 168h” value [2, 8] of the same compound?
Answer: 2.292 (1.072) μg/mL

Question: And the “Fold change in AUC0-168h relative to reference, GMR (90% CI)” value ([2]; single 400 mg dose, Phase 2/3 patients, BMI obese (≥30 kg/m^2), n = 36, vs optimum BMI)?
Answer: 0.77 (0.69, 0.86)

Question: What about the “Fold change in AUC0-168h relative to reference, GMR (90% CI)” value ([2]; single 400 mg dose, Phase 2/3 patients, BMI overweight (25 to <30 kg/m^2), n = 40, vs optimum BMI) of the same compound?
Answer: 0.84 (0.75, 0.94)

Question: What about the “Fold change in AUC0-168h relative to reference, GMR (90% CI)” value ([2]; single 400 mg dose, Phase 2/3 patients, BMI underweight (<18.5 kg/m^2), n = 17, vs optimum BMI) of the same compound?
Answer: 1.03 (0.88, 1.20)

Question: What about the “Fold change in AUC0-168h relative to reference, GMR (90% CI)” value ([2]; single 400 mg dose, Phase 2/3 patients, age (y) [65,75), n = 38, vs 24 to <65 years) of the same compound?
Answer: 0.95 (0.85, 1.05)

Question: What about the “Fold change in AUC0-168h relative to reference, GMR (90% CI)” value ([2]; single 400 mg dose, Phase 2/3 patients, age (y) [75,89], n = 25, vs 24 to <65 years) of the same compound?
Answer: 1.20 (1.06, 1.36)

Question: What about the “higher AUC0–168h in female subjects” value ([2]; single 400 mg dose, Phase 2/3 patients, female vs male) of the same compound?
Answer: 21%

Question: What about the “Fold change in AUC0-168h relative to reference, GMR (90% CI)” value ([2]; single 400 mg dose, Phase 2/3 patients, kidney failure (CrCL <15 mL/min) vs normal renal function) of the same compound?
Answer: 1.16 (0.96, 1.39)

Question: What about the “Fold change in AUC0-168h relative to reference, GMR (90% CI)” value ([2]; single 400 mg dose, Phase 2/3 patients, mild renal impairment (CrCL 60 to 89 mL/min) vs normal renal function) of the same compound?
Answer: 0.95 (0.85, 1.06)

Question: What about the “Fold change in AUC0-168h relative to reference, GMR (90% CI)” value ([2]; single 400 mg dose, Phase 2/3 patients, moderate renal impairment (CrCL 30 to 59 mL/min) vs normal renal function) of the same compound?
Answer: 1.23 (1.11, 1.36)

Question: And the “Fold change in AUC0-168h relative to reference, GMR (90% CI)” value ([2]; single 400 mg dose, Phase 2/3 patients, severe renal impairment (CrCL 15 to 29 mL/min) vs normal renal function)?
Answer: 1.01 (0.88, 1.16)

Question: And the “Total volume of distribution at steady state” value (shortened to “Total volume of distribution”) [2, 3]?
Answer: 42.312 (22.744) L

Question: What about the “Total volume of distribution” value [2, 4] of the same compound?
Answer: 43.410 (10.265) L

Question: And the “Total volume of distribution” value [2, 5]?
Answer: 56.279 (19.744) L

Question: What about the “Total volume of distribution” value [2, 6] of the same compound?
Answer: 57.264 (10.702) L

Question: What about the “Total volume of distribution” value [2, 7] of the same compound?
Answer: 62.434 (40.964) L

Question: And the “Total volume of distribution” value [2, 8]?
Answer: 67.451 (27.744) L
